Data as given in patent publication EP4737449A1 (Changchun Genescience Pharmaceutical Co., Ltd., priority 2023, dated 2025).
Like-named read-outs stand apart in the source and are kept apart here.

Columns and labels:
[1] = biological target: T1, p53-Y220C mutant protein (Homo sapiens, UniProt P04637, Y220C); experiment: In vitro DNA binding activity assay (TR-FRET); format: biochemical; conditions: concentration required to increase the binding activity of protein to DNA by 50%
T1 construct: The recombinant Y220C p53 DBD protein with his-tag
Summary of the method: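 SC150, the compound concentration increasing p53-Y220C DNA binding by 50% relative to vehicle, came from background-corrected 665/615 nm TR-FRET ratios. His-tagged DBD and compound were preincubated 60 min at RT before biotin-DNA plus Eu-anti-His/streptavidin-d2 detection overnight in the dark.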

[2] = tested on: human-derived lung cancer LU5269 subcutaneous xenograft; experiment: Efficacy in human-derived lung cancer LU5269 subcutaneous xenograft model; format: in vivo, NOD/SCID mice; conditions: PO, QD*21
Procedure: Tumor tissues were collected from LU5269 lung cancer xenograft model bearing mice, cut into tumor masses with a diameter of 2-3 mm, and seeded subcutaneously in the right anterior scapula of NOD/SCID mice.
Before administration, all animals were weighed and tumor volume was measured using a vernier caliper. When the tumor grew to have an average volume of about 140 mm^3, group-based drug administration was performed based on tumor size (vehicle: 0.2% HPC + 0.5% Tween 80). Since tumor volume can affect the effectiveness of treatment, random grouping design was used to group the mice according to tumor volume to ensure that the tumor volumes in different groups were similar. Tumor volume calculation formula: Tumor volume (mm^3) = 1/2 × (a ×b^2) (wherein a denotes the long diameter and b denotes the short diameter).
Table 12 Route, dose and regimen of administration in the subcutaneous xenograft model

[3] = Pharmacokinetic study in beagles; format: in vivo; conditions: dog, plasma; for bioavailability: IV 1mpk/PO 2mpk
Procedure: On the day of administration, the test sample was prepared using a 5%DMSO+5%Solutol+90%Saline vehicle formula, and the drug solution was prepared and kept ready for use.
The IV group received a dose of 1 mg/kg, and the PO group received a dose of 2 mg/kg. The animals were fasted overnight before administration.
The animals were weighed before administration, and the dose was calculated based on the body weight. The drug was administered once via IV and PO on the day of administration. After administration, blood was collected from an appropriate vein at 0.083 h, 0.25 h, 0.5 h, 1.0 h, 2.0 h, 4.0 h, 6.0 h, 8.0 h and 24.0 h, about 1 mL each time, placed in EDTA-K2 anticoagulation blood collection tubes, centrifuged at 4000 rpm for 10 min (4°C), and plasma was separated within 1 h. The plasma was drawn into labeled EP tubes (the label should at least indicate the subject code, animal number, collection time, collection date, etc.), and stored at -80°C for testing. The process from blood collection to centrifugation was carried out in ice bath. The animals were allowed to eat and have free access to water 3 h after administration. The concentration of the test sample in beagle plasma was detected using validated LC-MS/MS.

[4] = Pharmacokinetic study in SD rats; format: in vivo; conditions: rat, plasma; for AUC(0-t) at 24 h / AUC(0-t): read-out: AUC0-24h
Procedure: On the day of administration, the test sample was prepared using a 2% HPC + 5% solutol aqueous solution vehicle formula, and the drug solution was prepared and kept ready for use.
The PO group was given the designated dose. The animals in the oral administration group were fasted overnight, allowed free access to water, and returned to food 3 hours after administration.
The animals were weighed before administration, and the dose was calculated based on the body weight. The drug was administered once via PO on the day of administration. After administration in the PO group, blood was collected from the jugular vein at 0.083 h, 0.25 h, 0.5 h, 1.0 h, 2.0 h, 4.0 h, 6.0 h, 8.0 h and 24 h, about 200 µL each time, placed in EDTA-K2 anticoagulation blood collection tubes, centrifuged at 4000 rpm for 10 min (4°C), and plasma was separated within 1 h. The plasma was drawn into labeled EP tubes (the label should at least indicate the subject code, animal number, collection time, collection date, etc.), and stored at -80°C for testing. The process from blood collection to centrifugation was carried out in ice bath. The concentration of the test sample in SD rat plasma was detected using validated LC-MS/MS.

With `CN1CC[C@@H](Nc2cccc3c(CC(F)(F)F)c(C#CCNC(=O)c4cnn(C(C)(C)C)c4)nn23)[C@@H](F)C1` [Compound 001, 1-tert-butyl-N-[3-(7-{[(3S,4R)-3-fluoro-1-methylpiperidin-4-yl]amino}-3-(2,2,2-trifluoroethyl)pyrazolo[1,5-a]pyridin-2-yl)prop-2-yn-1-yl]-1H-pyrazole-4-carboxamide] the SC150 [1] was 10 nM.

With `CN1CC[C@@H](Nc2cccc3c(CC(F)(F)F)c(C#CCNC(=O)c4cnn(C(C)(C)C)c4N)nn23)[C@@H](F)C1` [Compound 047] the TGI ([2]; 50mpk) was 82%, the TGI ([2]; 75mpk) was 111% and the TGI ([2]; 100 mpk) was 119%. For the same compound, the TGI ([2]; 150mpk) was 119%, the AUC(0-t) ([3]; 1 mg/kg, IV 1mpk) was 1400 ng·h/mL and the C0 ([3]; 1 mg/kg, IV 1mpk) was 414 ng/mL. It also gave a Vd ([3]; 1 mg/kg, IV 1mpk) of 3.8 L/kg, a clearance ([3]; 1 mg/kg, IV 1mpk) of 12.8 mL/min/kg and a half-life ([3]; 1 mg/kg, IV 1mpk) of 5.6 h. The AUC(0-t) ([3]; 2 mg/kg, PO 2mpk) was 1640 ng·h/mL, the Cmax ([3]; 2 mg/kg, PO 2mpk) was 199 ng/mL and the Tmax ([3]; 2 mg/kg, PO 2mpk) was 2 h. For the same compound, the half-life ([3]; 2 mg/kg, PO 2mpk) was 14 h, the bioavailability [3] was 42% and the SC150 [1] was 7 nM. The Cmax ([4]; 50 mg/kg, po 50 mpk) was 13200 ng/mL, the AUC(0-t) at 24 h ([4]; 50 mg/kg, po 50 mpk) was 113000 ng·h/mL and the Cmax ([4]; 300 mg/kg, po 300 mpk) was 32800 ng/mL. The AUC(0-t) at 24 h ([4]; 300 mg/kg, po 300 mpk) was 431000 ng·h/mL.

`CCn1ncc(C(=O)NCC#Cc2nn3c(N[C@@H]4CCN(C)C[C@@H]4F)cccc3c2CC(F)(F)F)c1N` [Compound 261, 5-amino-1-ethyl-N-[3-(7-{[(3S,4R)-3-fluoro-1-methylpiperidin-4-yl]amino}-3-(2,2,2-trifluoroethyl)pyrazolo[1,5-a]pyridin-2-yl)prop-2-yn-1-yl]-1H-pyrazole-4-carboxamide] gave an SC150 [1] of 6 nM.

In the case of `CNC(=O)c1ccc(NCC#Cc2cc3c(N[C@@H]4CCN(C)C[C@@H]4F)cccc3n2CC(F)(F)F)c(OC)c1` [Control compound, reference compound], the TGI ([2]; 100 mpk) is reported as 119%, the AUC(0-t) ([3]; beagle, 1 mg/kg, IV 1mpk) is reported as 849 ng·h/mL and the C0 ([3]; beagle, 1 mg/kg, IV 1mpk) is reported as 277 ng/mL. For the same compound, the Vd ([3]; beagle, 1 mg/kg, IV 1mpk) was 6.7 L/kg, the clearance ([3]; beagle, 1 mg/kg, IV 1mpk) was 20.4 mL/min/kg and the half-life ([3]; beagle, 1 mg/kg, IV 1mpk) was 4.8 h. For the same compound, the bioavailability ([3]; beagle, 2 mg/kg) was 82%, the AUC(0-t) ([3]; beagle, 2 mg/kg, PO 2mpk) was 1490 ng·h/mL and the Cmax ([3]; beagle, 2 mg/kg, PO 2mpk) was 101 ng/mL. The Tmax ([3]; beagle, 2 mg/kg, PO 2mpk) was 4.7 h, the half-life ([3]; beagle, 2 mg/kg, PO 2mpk) was 6.7 h and the SC150 [1] was 14 nM. It also gave a Cmax ([4]; 50 mg/kg, po 50 mpk) of 11500 ng/mL, an AUC(0-t) ([4]; 50 mg/kg, po 50 mpk) of 148000 ng·h/mL and a Cmax ([4]; 300 mg/kg, po 300 mpk) of 25400 ng/mL. For the same compound, the AUC(0-t) ([4]; 300 mg/kg, po 300 mpk) was 416000 ng·h/mL.
